# Measured values reported in article doi:10.1101/2020.10.22.350827v1 (biorxiv, 2020).
# Positions count from the first letter of the chain named.
# Key:
# [1] = target: T1, Nluc-A1R (adenosine A1 receptor) (Homo sapiens, UniProt P30542); test: NanoBRET competition binding, live HEK […] cells; format: cell-based
# T1 sequence (P30542 1-326): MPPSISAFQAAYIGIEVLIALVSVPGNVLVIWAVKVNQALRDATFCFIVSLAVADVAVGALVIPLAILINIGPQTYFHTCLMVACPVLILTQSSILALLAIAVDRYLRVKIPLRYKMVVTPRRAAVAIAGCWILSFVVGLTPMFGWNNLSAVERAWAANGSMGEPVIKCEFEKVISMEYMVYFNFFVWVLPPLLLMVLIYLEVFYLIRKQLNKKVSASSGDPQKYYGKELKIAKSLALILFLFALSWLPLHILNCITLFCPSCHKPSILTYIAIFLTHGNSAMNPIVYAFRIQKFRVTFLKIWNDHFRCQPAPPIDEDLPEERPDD
# [2] = target: T2, Nluc-A1R (adenosine A1 receptor) H264A (Homo sapiens, UniProt P30542, H264A); test: cell-based; design: species or system HEK 293
# T2 sequence (P30542 1-326 H264A): T1 sequence (P30542 1-326) with H264A
smiles,measurement,setting,value
"OC[C@H]1O[C@@H](n2cnc3c(N[C@@H]4CCC[C@H]4O)ncnc32)[C@H](O)[C@@H]1O [compound 6, HOCPA]",Ki,[1],427 nM
same,Ki,[2],955 nM
